US11981661B2, “Heterocyclic compounds” (Hoffmann-La Roche Inc., priority 2020, dated 2024)

biological target: T1, MAGL (Homo sapiens, UniProt Q99685); assay: 2-AG assay (MAGL inhibitory activity, hydrolysis of 2-arachidonoylglycerol followed by mass spectrometry); assay type: biochemical; conditions: 50 pM MAGL, 8 μM 2-arachidonoylglycerol, 15 min preincubation, 30 min incubation at RT, concentration range 12.5 μM to 0.8 pM
T1 sequence (Q99685 1-303): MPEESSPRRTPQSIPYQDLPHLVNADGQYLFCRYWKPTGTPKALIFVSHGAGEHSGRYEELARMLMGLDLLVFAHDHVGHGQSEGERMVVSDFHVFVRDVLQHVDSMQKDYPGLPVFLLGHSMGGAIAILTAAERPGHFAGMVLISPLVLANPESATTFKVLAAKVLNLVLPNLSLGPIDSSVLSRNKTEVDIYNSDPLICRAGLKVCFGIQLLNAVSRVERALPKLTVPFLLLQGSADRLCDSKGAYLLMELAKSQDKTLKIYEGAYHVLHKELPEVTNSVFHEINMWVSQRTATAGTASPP
How it was run: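 Activity derived from the arachidonic acid/d8-arachidonic acid MS intensity ratio after acetonitrile quench. Reaction: 8 μM 2-AG substrate with 50 pM MAGL, 30 min at RT, following 15 min RT compound preincubation; buffer 50 mM TRIS, 1 mM EDTA, 0.01% Tween; final compound range 12.5 μM to 0.8 pM.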

| SMILES | IC50 |
| --- | --- |
| CC1(CCC(=O)N2CC(c3ccc(C4(C(F)(F)F)CC4)cc3)C2)CCC(=O)N1 (single isomer, unassigned) [Example 16, (+)- or (−)-5-Methyl-5-[3-oxo-3-[3-[4-[1-(trifluoromethyl)cyclopropyl]phenyl]azetidin-1-yl]propyl]pyrrolidin-2-one] | 213 nM |
| CS(=O)(=O)c1cc(Cl)cnc1-c1ccc(C2CN(C(=O)CC[C@@H]3COC(=O)N3)C2)cc1 [Example 115, (4R)-4-[3-[3-[4-(5-Chloro-3-methylsulfonyl-2-pyridyl)phenyl]azetidin-1-yl]-3-oxo-propyl]oxazolidin-2-one] | 3 nM |
| O=C(CCCc1cnn[nH]1)N1CC(OCc2ccc(C(F)(F)F)cc2F)C1 [Example 39, 1-[3-[[2-Fluoro-4-(trifluoromethyl)phenyl]methoxy]azetidin-1-yl]-4-(1H-triazol-5-yl)butan-1-one] | 58 nM |
| O=C1N[C@H](CCC(=O)N2CC3(CCN(S(=O)(=O)c4ccc(C(F)(F)F)cc4F)CC3)C2)CO1 [Example 143, (4R)-4-[3-[7-[2-Fluoro-4-(trifluoromethyl)phenyl]sulfonyl-2,7-diazaspiro [3.5]nonan-2-yl]-3-oxo-propyl]oxazolidin-2-one] | 190 nM |
| CS(=O)(=O)c1cc(Cl)ccc1-c1ccc(C2CN(C(=O)CC[C@@H]3COC(=O)N3)C2)cn1 [Example 117, (4R)-4-[3-[3-[6-(4-Chloro-2-methylsulfonyl-phenyl)-3-pyridyl]azetidin-1-yl]-3-oxo-propyl]oxazolidin-2-one] | 10 nM |
| O=C1NCC(CCC(=O)N2CC(OCc3ccc(C(F)(F)F)cc3F)C2)N1 (stereo not drawn) [Example 215, 4-[3-[3-[[2-Fluoro-4-(trifluoromethyl)phenyl]methoxy]azetidin-1-yl]-3-oxo-propyl]imidazolidin-2-one] | 860 nM |
